Laboratory results from US5140018A, “1,3,2-benzodithiazole-1-oxide compounds” (Abbott Laboratories, priority 1991, dated 1992).
Converted amounts (≈) assume the structure as drawn. Where two headings read alike, the source gives them in different places.

Assays:
Type in all cases: cell-based
[1] = tested on: Candida albicans ATCC 10231; assay: In vitro antifungal MIC, Candida albicans ATCC 10231
Procedure: (§1) The in vitro antifungal activity of the compounds of the present invention against a variety of fungiwas determined as follow: Test medium was prepared by dissolving first 5 g of dextrose and then 6.7 g of Bacto Yeast Nitrogen Base® (commercially available from Difco Laboratories) in 100 mL of distilled water. The solution was filter-sterilized and diluted 1:10 with 0.01M pH 8.0 phosphate buffer solution, and the final pH of the medium adjusted to about pH 7.0 when necessary with either 0.1N hydrochloric acid solution of 0.1N sodium hydroxide solution. […] These concentrated stock solutions were diluted to a concentration of 200 μg/mL (twice the highest concentration desired for testing) with the test medium. Amphotericin B, similarly prepared, was used as a reference antifungal agent.
(§2) The test organisms were then inoculated into test tubes containing approximately 3 to 10 mL of test medium and the test tubes incubated overnight at 37° C. A sample of each overnight culture was placed in a test tube and diluted using the test medium until a reading of 95% transmittance was obtained in a conventional UV/visible spectrophotometer set to 560 nm. The adjusted cultures were then diluted 1:50 with test medium. These diluted cultures served as the inocula for the assays which follow and were used within 15 minutes of preparation.
(§3) Next, 2-fold serial dilutions of each test compound in test medium were prepared in a 96-well microtiter plate using calibrated microdiluters attached to an automatic (hand-held) diluter (available from Dynatech Laboratories).
(§4) Using sterile calibrated droppers or a multi-point dispenser, the diluted inoculum suspension was added to each of the wells in the plate. When inoculation was complete, the microtiter tray was covered with a plastic plate sealer to minimize evaporation. After the plate had been sealed, a hole was made above each well with a sterile 26-gauge syringe needle in order to allow gas exchange. If plate sealers were not available, the microtiter trays were stacked in groups of five or less with an empty tray on top. The microtiter trays were then incubated in a humidified chamber at 35°-37° C. for 48 hours or until growth was visible in the growth control wells.
(§5) The minimum inhibitory concentration (MIC) was defined as the lowest concentration of test compound yielding no growth, a slight haze or sparsely isolated colonies on the inoculum spot as compared to the growth control containing no test compound.

Candida albicans 579A = assay: In vitro antifungal MIC, Candida albicans 579A
Procedure: as §1, §2, §3, §4, §5

Candida albicans CCH 442 = assay: In vitro antifungal MIC, Candida albicans CCH 442
Procedure: as §1, §2, §3, §4, §5

[2] = tested on: Candida albicans ATCC 38247; assay: In vitro antifungal MIC, Candida albicans ATCC 38247
Procedure: as §1, §2, §3, §4, §5

[3] = tested on: Candida albicans ATCC 62376; assay: In vitro antifungal MIC, Candida albicans ATCC 62376
Procedure: as §1, §2, §3, §4, §5

[4] = tested on: Candida tropicalis NRRL-Y-112; assay: In vitro antifungal MIC, Candida tropicalis NRRL-Y-112
Procedure: as §1, §2, §3, §4, §5

Candida kefyr ATCC 28838 = assay: In vitro antifungal MIC, Candida kefyr ATCC 28838
Procedure: as §1, §2, §3, §4, §5

[5] = tested on: Torulopsis glabrata ATCC 15545; assay: In vitro antifungal MIC, Torulopsis glabrata ATCC 15545
Procedure: as §1, §2, §3, §4, §5

[6] = tested on: Cryptococcus albidus ATCC 34140; assay: In vitro antifungal MIC, Cryptococcus albidus ATCC 34140
Procedure: as §1, §2, §3, §4, §5

[7] = tested on: Aspergillus niger ATCC 16404; assay: In vitro antifungal MIC, Aspergillus niger ATCC 16404
Procedure: as §1, §2, §3, §4, §5

[8] = Candida albicans ATCC 10231, 35°-37° C., 48 hours
[9] = Candida albicans 579A, 35°-37° C., 48 hours
[10] = Candida albicans CCH 442, 35°-37° C., 48 hours
[11] = Candida albicans ATCC 38247, 35°-37° C., 48 hours
[12] = Candida albicans ATCC 62376, 35°-37° C., 48 hours
[13] = Candida tropicalis NRRL-Y-112, 35°-37° C., 48 hours
[14] = Candida kefyr ATCC 28838, 35°-37° C., 48 hours
[15] = Torulopsis glabrata ATCC 15545, 35°-37° C., 48 hours
[16] = Cryptococcus albidus ATCC 34140, 35°-37° C., 48 hours
[17] = Aspergillus niger ATCC 16404, 35°-37° C., 48 hours
[18] = ATCC10231, Candida albicans ATCC 10231, 35°-37° C., 48 hours, read-out: MIC
[19] = Candida albicans 579A, 35°-37° C., 48 hours, read-out: MIC
[20] = CCH442, Candida albicans CCH 442, 35°-37° C., 48 hours, read-out: MIC
[21] = ATCC38247, Candida albicans ATCC 38247, 35°-37° C., 48 hours, read-out: MIC
[22] = ATCC62376, Candida albicans ATCC 62376, 35°-37° C., 48 hours, read-out: MIC
[23] = NRRLY112, Candida tropicalis NRRL-Y-112, 35°-37° C., 48 hours, read-out: MIC
[24] = Kluyveromyces marxianus, ATCC28838, Candida kefyr ATCC 28838, 35°-37° C., 48 hours, read-out: MIC
[25] = Nakaseomyces glabratus, ATCC15545, Torulopsis glabrata ATCC 15545, 35°-37° C., 48 hours, read-out: MIC
[26] = Naganishia albida, ATCC34140, Cryptococcus albidus ATCC 34140, 35°-37° C., 48 hours, read-out: MIC
[27] = ATCC16404, Aspergillus niger ATCC 16404, 35°-37° C., 48 hours, read-out: MIC

Compound	MIC [1, 18] [µg/mL]	MIC (Candida albicans 579A; [19]) [µg/mL]	MIC (Candida albicans CCH 442; [20]) [µg/mL]	MIC [2, 21] [µg/mL]	MIC [3, 22] [µg/mL]	MIC [4, 23] [µg/mL]	MIC (Candida kefyr ATCC 28838; [24]) [µg/mL]	MIC [5, 25] [µg/mL]	MIC [6, 26] [µg/mL]	MIC [7, 27] [µg/mL]	other results
CC[Si](CC)(CC)OCCN1Sc2ccccc2[S+]1[O-] (stereo not shown) [Example 20, 2-(2-(triethylsilyloxy)ethyl)-1,3,2-benzodithiazole-1-oxide]	–	–	–	–	–	–	–	–	–	–	MIC ([1]; Candida albicans, ATCC10231, 48 h): 25 µg/mL (≈ 75.9 µM); MIC (Candida albicans 579A; Candida albicans, 579A, 48 h): 25 µg/mL (≈ 75.9 µM); MIC (Candida albicans CCH 442; Candida albicans, CCH442, 48 h): 50 µg/mL (≈ 152 µM); MIC ([2]; Candida albicans, ATCC38247, 48 h): 3.12 µg/mL (≈ 9.47 µM); MIC ([3]; Candida albicans, ATCC62376, 48 h): 25 µg/mL (≈ 75.9 µM); MIC ([4]; Candida tropicalis, NRRLY112, 48 h): 25 µg/mL (≈ 75.9 µM); MIC (Candida kefyr ATCC 28838; Kluyveromyces marxianus, ATCC28838, 48 h): 1.56 µg/mL (≈ 4.73 µM); MIC ([5]; Nakaseomyces glabratus, ATCC15545, 48 h): 25 µg/mL (≈ 75.9 µM); MIC ([6]; Naganishia albida, ATCC34140, 48 h): 12.5 µg/mL (≈ 37.9 µM); MIC ([7]; Aspergillus niger, ATCC16404, 48 h): 12.5 µg/mL (≈ 37.9 µM)
CCOC(=O)CN1Sc2ccccc2[S+]1[O-] (stereo not shown) [Example 21, ethyl 2-(1,3,2-benzodithiazole-2-yl-1-oxide)-acetate]	–	–	–	–	–	–	–	–	–	–	MIC [1, 8]: 6.25 µg/mL (≈ 24.3 µM); MIC (Candida albicans 579A; [9]): 6.25 µg/mL (≈ 24.3 µM); MIC (Candida albicans CCH 442; [10]): 6.25 µg/mL (≈ 24.3 µM); MIC [2, 11]: 6.25 µg/mL (≈ 24.3 µM); MIC [3, 12]: 6.25 µg/mL (≈ 24.3 µM); MIC [4, 13]: 6.25 µg/mL (≈ 24.3 µM); MIC (Candida kefyr ATCC 28838; [14]): 0.78 µg/mL (≈ 3.03 µM); MIC [5, 15]: 3.12 µg/mL (≈ 12.1 µM); MIC [6, 16]: 12.5 µg/mL (≈ 48.6 µM); MIC [7, 17]: 1.56 µg/mL (≈ 6.06 µM)
[O-][S+]1c2ccccc2SN1CCc1ccccc1 (stereo not shown) [Example 1, 2-(2-Phenylethyl)-1,3,2-benzodithiazole-1-oxide]	0.78 (≈ 2.83 µM)	0.39 (≈ 1.42 µM)	1.56 (≈ 5.66 µM)	1.56 (≈ 5.66 µM)	0.78 (≈ 2.83 µM)	3.12 (≈ 11.3 µM)	0.78 (≈ 2.83 µM)	1.56 (≈ 5.66 µM)	3.12 (≈ 11.3 µM)	3.12 (≈ 11.3 µM)	–
[O-][S+]1c2ccccc2SN1CCO (stereo not shown) [Example 18, 2-(2-hydroxyethyl)-1,3,2-benzodithiazole-1-oxide]	12.5 (≈ 58.1 µM)	12.5 (≈ 58.1 µM)	12.5 (≈ 58.1 µM)	1.56 (≈ 7.25 µM)	25 (≈ 116 µM)	12.5 (≈ 58.1 µM)	0.78 (≈ 3.62 µM)	6.25 (≈ 29 µM)	1.56 (≈ 7.25 µM)	6.25 (≈ 29 µM)	–
2-n-octyl-5-methyl-1,3,2-benzodithiazole-1-oxide; 2-n-octyl-6-methyl-1,3,2-benzodithiazole-1-oxide [Example 40]	–	–	–	–	–	–	–	–	–	–	MIC [1, 8]: 1.56 µg/mL; MIC (Candida albicans 579A; [9]): 0.78 µg/mL; MIC (Candida albicans CCH 442; [10]): 3.12 µg/mL; MIC [2, 11]: 0.2 µg/mL; MIC [3, 12]: 1.56 µg/mL; MIC [4, 13]: 3.12 µg/mL; MIC (Candida kefyr ATCC 28838; [14]): 0.78 µg/mL; MIC [5, 15]: 3.12 µg/mL; MIC [6, 16]: 3.12 µg/mL; MIC [7, 17]: 1.56 µg/mL
CCOC(CCCN1Sc2ccccc2[S+]1[O-])OCC (stereo not shown) [Example 25, 2-(4,4-diethoxybutyl)-1,3,2-benzodithiazole-1-oxide]	6.25 (≈ 19.8 µM)	3.12 (≈ 9.89 µM)	1.56 (≈ 4.95 µM)	1.56 (≈ 4.95 µM)	6.25 (≈ 19.8 µM)	12.5 (≈ 39.6 µM)	3.12 (≈ 9.89 µM)	6.25 (≈ 19.8 µM)	12.5 (≈ 39.6 µM)	3.12 (≈ 9.89 µM)	–
[O-][S+]1c2ccccc2SN1C1CCCCCCC1 (stereo not shown) [Example 28, 2-cyclooctyl-1,3,2-benzodithiazole-1-oxide]	3.12 (≈ 11.1 µM)	3.12 (≈ 11.1 µM)	3.12 (≈ 11.1 µM)	6.25 (≈ 22.2 µM)	3.12 (≈ 11.1 µM)	3.12 (≈ 11.1 µM)	0.39 (≈ 1.39 µM)	3.12 (≈ 11.1 µM)	12.5 (≈ 44.4 µM)	0.78 (≈ 2.77 µM)	–
